# Results from patent US11427574B2, “Compounds for treating Rac-GTPase mediated disorder” (Children's Medical Center Corporation, priority 2015, dated 2022).
# How the values were obtained:
# PAK4 = PAK4 (Homo sapiens, UniProt O96013); experiment: Kinase screening; assay type: biochemical
# Description: (§1) Compound 1 was tested for its efficacy in inhibiting activities of 40 kinases and binding with 12 GPCRs both as an antagonist and an agonist.
# PAK1 = PAK1 (Homo sapiens, UniProt Q13153); experiment: Kinase screening; assay type: biochemical
# Chain of PAK1 (Q13153 whole entry): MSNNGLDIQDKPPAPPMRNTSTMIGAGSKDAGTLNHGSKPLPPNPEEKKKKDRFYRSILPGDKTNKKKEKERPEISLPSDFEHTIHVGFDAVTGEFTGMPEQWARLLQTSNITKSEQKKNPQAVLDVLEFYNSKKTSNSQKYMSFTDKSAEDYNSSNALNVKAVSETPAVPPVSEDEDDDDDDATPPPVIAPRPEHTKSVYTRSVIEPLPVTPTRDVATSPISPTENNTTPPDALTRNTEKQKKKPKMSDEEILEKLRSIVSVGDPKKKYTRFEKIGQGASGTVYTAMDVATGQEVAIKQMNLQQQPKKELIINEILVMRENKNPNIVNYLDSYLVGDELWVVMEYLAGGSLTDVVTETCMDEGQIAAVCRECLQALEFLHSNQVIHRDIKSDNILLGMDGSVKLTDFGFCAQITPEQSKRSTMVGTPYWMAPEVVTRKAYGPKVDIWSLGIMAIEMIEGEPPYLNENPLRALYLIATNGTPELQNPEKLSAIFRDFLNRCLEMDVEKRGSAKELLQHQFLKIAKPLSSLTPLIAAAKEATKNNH
# Description: as §1
# PAK7 (KIAA1264) = PAK7 (KIAA1264) (Homo sapiens, UniProt Q9P286); experiment: Kinase screening; assay type: biochemical
# Description: as §1
# SYK = SYK (Homo sapiens, UniProt P43405); experiment: Kinase screening; assay type: biochemical
# Description: as §1
# IGF1R = IGF1R (Homo sapiens, UniProt P08069); experiment: Kinase screening; assay type: biochemical
# Description: as §1
# CDC42 BPB (MRCKB) = CDC42 BPB (MRCKB) (Homo sapiens, UniProt Q9Y5S2); experiment: Kinase screening; assay type: biochemical
# Description: as §1
# KIT = KIT (Homo sapiens, UniProt P10721); experiment: Kinase screening; assay type: biochemical
# Description: as §1
# PAK3 = PAK3 (Homo sapiens, UniProt O75914); experiment: Kinase screening; assay type: biochemical
# Chain of PAK3 (O75914 whole entry, species assumed): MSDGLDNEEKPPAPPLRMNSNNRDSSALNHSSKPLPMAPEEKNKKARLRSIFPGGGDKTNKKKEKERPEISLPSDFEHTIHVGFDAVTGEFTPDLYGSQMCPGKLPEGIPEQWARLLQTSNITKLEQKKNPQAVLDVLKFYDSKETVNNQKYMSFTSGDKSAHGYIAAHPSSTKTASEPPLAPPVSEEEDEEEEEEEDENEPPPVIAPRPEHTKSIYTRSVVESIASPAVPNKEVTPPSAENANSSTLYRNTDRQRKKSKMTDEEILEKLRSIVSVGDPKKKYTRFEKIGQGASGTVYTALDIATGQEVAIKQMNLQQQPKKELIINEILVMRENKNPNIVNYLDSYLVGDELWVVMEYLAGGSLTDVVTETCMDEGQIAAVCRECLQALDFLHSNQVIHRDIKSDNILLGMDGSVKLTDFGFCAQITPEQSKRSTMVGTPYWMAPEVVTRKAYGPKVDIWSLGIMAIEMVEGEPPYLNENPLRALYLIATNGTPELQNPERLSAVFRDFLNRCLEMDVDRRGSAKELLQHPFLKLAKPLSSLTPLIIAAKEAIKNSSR
# Description: as §1
# PIK3C2B (PI3K-C2 beta) = PIK3C2B (PI3K-C2 beta) (Homo sapiens, UniProt O00750); experiment: Kinase screening; assay type: biochemical
# Description: as §1
# ABL1 = ABL1 (Homo sapiens, UniProt P00519); experiment: Kinase screening; assay type: biochemical
# Description: as §1
# JAK2 = JAK2 (Homo sapiens, UniProt O60674); experiment: Kinase screening; assay type: biochemical
# Chain of JAK2 (O60674 whole entry, species assumed): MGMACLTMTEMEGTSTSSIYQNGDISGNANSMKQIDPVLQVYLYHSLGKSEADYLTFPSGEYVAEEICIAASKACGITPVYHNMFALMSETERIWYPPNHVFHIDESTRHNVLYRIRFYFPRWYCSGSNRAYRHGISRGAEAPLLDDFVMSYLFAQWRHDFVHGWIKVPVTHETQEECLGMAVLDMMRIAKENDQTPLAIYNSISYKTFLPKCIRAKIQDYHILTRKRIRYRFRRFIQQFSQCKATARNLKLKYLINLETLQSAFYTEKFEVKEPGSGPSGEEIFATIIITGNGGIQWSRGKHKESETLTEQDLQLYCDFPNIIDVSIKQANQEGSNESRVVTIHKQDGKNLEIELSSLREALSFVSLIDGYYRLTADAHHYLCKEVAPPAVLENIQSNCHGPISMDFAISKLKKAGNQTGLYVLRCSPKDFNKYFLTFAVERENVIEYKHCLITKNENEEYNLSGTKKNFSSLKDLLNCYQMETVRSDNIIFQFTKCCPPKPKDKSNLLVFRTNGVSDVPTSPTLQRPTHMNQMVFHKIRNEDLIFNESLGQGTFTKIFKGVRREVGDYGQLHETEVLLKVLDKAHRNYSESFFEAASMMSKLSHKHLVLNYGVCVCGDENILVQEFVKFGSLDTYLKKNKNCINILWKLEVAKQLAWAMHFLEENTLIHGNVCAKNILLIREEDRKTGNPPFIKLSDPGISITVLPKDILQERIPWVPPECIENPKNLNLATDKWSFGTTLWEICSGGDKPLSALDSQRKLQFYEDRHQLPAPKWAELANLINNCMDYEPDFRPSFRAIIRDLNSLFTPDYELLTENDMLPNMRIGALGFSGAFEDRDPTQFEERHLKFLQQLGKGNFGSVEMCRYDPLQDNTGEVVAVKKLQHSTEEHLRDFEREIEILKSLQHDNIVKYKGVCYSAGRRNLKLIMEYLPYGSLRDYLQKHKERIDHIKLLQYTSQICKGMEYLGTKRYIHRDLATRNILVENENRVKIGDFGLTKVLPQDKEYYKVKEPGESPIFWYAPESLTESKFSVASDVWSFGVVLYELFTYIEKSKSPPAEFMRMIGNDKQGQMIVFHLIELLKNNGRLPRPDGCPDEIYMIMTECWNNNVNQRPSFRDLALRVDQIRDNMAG
# Description: as §1
# JAK1 = JAK1 (Homo sapiens, UniProt P23458); experiment: Kinase screening; assay type: biochemical
# Description: as §1
# ROCK2 = ROCK2 (Homo sapiens, UniProt O75116); experiment: Kinase screening; assay type: biochemical
# Description: as §1
# CDK1/cyclin B = CDK1/cyclin B (Homo sapiens, UniProt P06493); experiment: Kinase screening; assay type: biochemical
# Description: as §1
# LIMK2 = LIMK2 (Homo sapiens, UniProt P53671); experiment: Kinase screening; assay type: biochemical
# Description: as §1
# FLT3 = FLT3 (Homo sapiens, UniProt P36888); experiment: Kinase screening; assay type: biochemical
# Description: as §1
# PDGFRA (PDGFR alpha) = PDGFRA (PDGFR alpha) (Homo sapiens, UniProt P16234); experiment: Kinase screening; assay type: biochemical
# Description: as §1
# SRC = SRC (Homo sapiens, UniProt P12931); experiment: Kinase screening; assay type: biochemical
# Chain of SRC (P12931 whole entry, species assumed): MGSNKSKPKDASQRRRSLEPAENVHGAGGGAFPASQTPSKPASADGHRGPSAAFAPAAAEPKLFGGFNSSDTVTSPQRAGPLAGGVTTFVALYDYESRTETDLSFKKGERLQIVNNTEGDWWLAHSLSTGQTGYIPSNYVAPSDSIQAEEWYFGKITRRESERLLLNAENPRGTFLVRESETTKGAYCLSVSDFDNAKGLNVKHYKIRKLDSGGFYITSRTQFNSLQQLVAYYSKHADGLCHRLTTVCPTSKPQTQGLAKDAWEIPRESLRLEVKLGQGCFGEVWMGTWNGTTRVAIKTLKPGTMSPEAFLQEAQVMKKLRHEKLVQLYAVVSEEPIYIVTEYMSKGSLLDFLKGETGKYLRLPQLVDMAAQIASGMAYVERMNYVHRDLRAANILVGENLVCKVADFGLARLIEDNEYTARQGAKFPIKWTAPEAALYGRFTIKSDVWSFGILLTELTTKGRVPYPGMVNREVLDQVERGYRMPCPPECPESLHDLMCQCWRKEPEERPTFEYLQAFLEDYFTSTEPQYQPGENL
# Description: as §1
# MAP2K2 (MEK2) = MAP2K2 (MEK2) (Homo sapiens, UniProt P36507); experiment: Kinase screening; assay type: biochemical
# Description: as §1
# CDK5/p25 = CDK5/p25 (Homo sapiens, UniProt Q00535); experiment: Kinase screening; assay type: biochemical
# Description: as §1
# CDC42 BPA (MRCKA) = CDC42 BPA (MRCKA) (Homo sapiens, UniProt Q5VT25); experiment: Kinase screening; assay type: biochemical
# Chain of CDC42 BPA (MRCKA) (Q5VT25 whole entry, species assumed): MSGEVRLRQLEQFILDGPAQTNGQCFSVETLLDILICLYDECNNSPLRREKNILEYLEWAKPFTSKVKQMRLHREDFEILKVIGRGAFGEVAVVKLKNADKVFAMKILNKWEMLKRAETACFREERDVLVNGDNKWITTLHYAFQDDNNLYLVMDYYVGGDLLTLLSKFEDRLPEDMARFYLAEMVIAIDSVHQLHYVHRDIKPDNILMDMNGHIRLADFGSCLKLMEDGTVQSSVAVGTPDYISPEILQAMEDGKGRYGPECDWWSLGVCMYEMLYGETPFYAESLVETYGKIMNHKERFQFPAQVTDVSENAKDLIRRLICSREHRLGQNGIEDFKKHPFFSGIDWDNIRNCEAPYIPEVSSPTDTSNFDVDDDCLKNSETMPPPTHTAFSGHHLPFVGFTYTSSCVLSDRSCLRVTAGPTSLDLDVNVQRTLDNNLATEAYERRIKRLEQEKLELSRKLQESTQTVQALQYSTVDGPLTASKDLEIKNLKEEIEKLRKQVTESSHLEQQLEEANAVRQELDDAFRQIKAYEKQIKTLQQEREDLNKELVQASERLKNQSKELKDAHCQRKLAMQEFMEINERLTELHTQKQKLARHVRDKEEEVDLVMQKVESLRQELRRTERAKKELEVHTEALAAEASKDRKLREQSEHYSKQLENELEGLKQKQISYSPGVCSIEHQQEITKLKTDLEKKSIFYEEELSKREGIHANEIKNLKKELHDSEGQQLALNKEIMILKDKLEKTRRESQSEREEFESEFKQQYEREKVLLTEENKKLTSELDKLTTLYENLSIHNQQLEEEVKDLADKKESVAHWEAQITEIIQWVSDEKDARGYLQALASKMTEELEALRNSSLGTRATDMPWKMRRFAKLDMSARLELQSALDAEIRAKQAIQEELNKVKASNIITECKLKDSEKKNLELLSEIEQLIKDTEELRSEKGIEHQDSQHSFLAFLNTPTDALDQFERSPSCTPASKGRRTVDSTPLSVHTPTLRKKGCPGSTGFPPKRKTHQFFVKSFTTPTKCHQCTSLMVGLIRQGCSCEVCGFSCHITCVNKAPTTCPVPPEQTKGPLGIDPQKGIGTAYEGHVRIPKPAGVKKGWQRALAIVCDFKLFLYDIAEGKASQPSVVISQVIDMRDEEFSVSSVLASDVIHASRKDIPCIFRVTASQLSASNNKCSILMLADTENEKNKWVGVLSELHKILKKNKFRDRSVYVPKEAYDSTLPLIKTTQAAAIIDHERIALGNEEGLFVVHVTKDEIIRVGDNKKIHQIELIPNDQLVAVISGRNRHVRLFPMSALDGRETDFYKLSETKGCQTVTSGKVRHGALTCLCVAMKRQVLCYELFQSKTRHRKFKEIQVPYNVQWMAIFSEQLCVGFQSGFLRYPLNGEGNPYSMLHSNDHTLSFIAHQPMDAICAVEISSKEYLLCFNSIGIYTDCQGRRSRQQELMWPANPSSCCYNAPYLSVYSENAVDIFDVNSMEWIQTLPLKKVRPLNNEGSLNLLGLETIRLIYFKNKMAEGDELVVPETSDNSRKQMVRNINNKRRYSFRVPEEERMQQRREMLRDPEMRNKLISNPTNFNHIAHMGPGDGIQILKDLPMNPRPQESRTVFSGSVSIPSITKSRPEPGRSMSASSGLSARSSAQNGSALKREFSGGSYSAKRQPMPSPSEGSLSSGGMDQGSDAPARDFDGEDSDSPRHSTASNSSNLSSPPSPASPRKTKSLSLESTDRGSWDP
# Description: as §1
# MYLK (MLCK) = MYLK (MLCK) (Homo sapiens, UniProt Q15746); experiment: Kinase screening; assay type: biochemical
# Description: as §1
# P12-Ichikawa cells = experiment: Proliferation assay in P12 leukemia cells; assay type: cell-based; settings: Homo sapiens, read-out: IC50, inhibition of proliferation
# Description: Dose Dependent Inhibition of Proliferation The 100 compounds selected from the initial in silico screen were assayed for inhibition of proliferation in two leukemia cell lines, SEM and P12 by Cell Titer Glo. The cells for the proliferation assay were spun down and re-suspended. The cell suspension was then divided and the compound to be tested added in desired concentrations and subsequently plated. Following an incubation period, the Cell Titer Glo reagent (Promega CellTiter 96® Aqueous Non-Radioactive Cell Proliferation Assay) was added and allowed to incubate. The absorbance is subsequently measured at 490 nm using a plate reader. Each compound was analyzed for its effects on cell proliferation.
# The lead compound, i.e. Compound 1, was analyzed for its effect on cell proliferation at various doses on three different leukemia cell lines: SEM, P12, and Loucy. In order to quantitate the percentage inhibition of cell proliferation, Cell Titer Glo analysis was completed as described in Example 2 above.
# (§2) FIGS. 3a-3c show three graphs illustrating the dose dependent inhibition of proliferation of Compound 1 in SEM, P12, and Loucy cells as measured by MTS assay. […] Compound 1 was further analyzed for its effect on cell apoptosis and cell death using a flow based assay using Annexin V staining.
# CDC42 = molecular target: T1, CDC42 (Homo sapiens, UniProt P60953); experiment: CDC42 activation pull down assay (Western blot); assay type: cell-based; settings: Western Blot (FIG. 10a)
# T1 construct: endogenous in cells
# T1 sequence (P60953 whole entry): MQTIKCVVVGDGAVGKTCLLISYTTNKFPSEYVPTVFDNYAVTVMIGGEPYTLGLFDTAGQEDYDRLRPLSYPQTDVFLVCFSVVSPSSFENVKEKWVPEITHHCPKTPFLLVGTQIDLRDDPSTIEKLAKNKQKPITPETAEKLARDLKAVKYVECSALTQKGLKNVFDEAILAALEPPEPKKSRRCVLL
# Description: (§3) To determine which of these compounds should be further pursued, a biochemical pull down assay was performed to confirm specific inhibition of Rac activation indicated by disruption of the interaction between Rac and […]. The assay initially required treatment of cells followed by pull down and analysis with Western blot. The cells were first starved in serum free media for 2 hours. They were then re-suspended in serum-containing medium and inhibitors added at desired concentration. Following incubation for the desired length of time, the cells were pelleted and lysed with Magnesium Lysis Buffer (Millipore Mg^2+ lysis/wash buffer). The Rac protein and any bound proteins were then collected with Pak Beads (Millipore Rac/cdc42 Assay Reagent (PAK-1 PBD, agarose). Bound protein was subsequently removed with lysis buffer and subject to Western Blot analysis.
# Compound 1 was tested to evaluate its effect on CDC42 activation. In this case, beads for the immunoprecipitation were coated with a CDC42 effector domain. […] The Western Blot and pull down analyses are also shown for DMSO and […].
# SEM cell line = experiment: Annexin V flow assay for apoptosis and cell death, SEM; assay type: cell-based; settings: Annexin V staining
# Text: as §2
# Compound 2 was further analyzed for its effect on cell apoptosis and cell death using a flow based assay using Annexin V staining.
# Rac = Rac activation pull down assay (PAK beads, Western blot); assay type: cell-based; settings: Western Blot (FIG. 2a)
# Description: as §3
# Compound 1 was identified as a lead compound from the above analyses. […] The Western Blot and pull down analyses are also shown for the compound DMSO, and the compound NSC23776, which is a known inhibitor of Rac1 binding and of Rac activation by Rac-specific RhoGEFs.
# P12 cell line = experiment: Annexin V flow assay for apoptosis and cell death, P12; assay type: cell-based; settings: Annexin V staining
# Text: as §2
structure (smiles),measurement,setting,value
CCc1ccc(CN(C)C(=O)CCc2nnc(CCc3c[nH]c4ccccc34)o2)nc1 (racemic) [Compound 1],inhibition percentage,PAK4,6.4 percentage
same,inhibition percentage,PAK1,22.7 percentage
same,inhibition percentage,PAK7 (KIAA1264),−11.5 percentage
same,inhibition percentage,SYK,7.0 percentage
same,inhibition percentage,IGF1R,−7.4 percentage
same,inhibition percentage,CDC42 BPB (MRCKB),3.3 percentage
same,inhibition percentage,KIT,−4.2 percentage
same,inhibition percentage,PAK3,−10.2 percentage
same,inhibition percentage,PIK3C2B (PI3K-C2 beta),−10.9 percentage
same,inhibition percentage,ABL1,0.6 percentage
same,inhibition percentage,JAK2,−11.6 percentage
same,inhibition percentage,JAK1,−3.3 percentage
same,inhibition percentage,ROCK2,−2.0 percentage
same,inhibition percentage,CDK1/cyclin B,−2.3 percentage
same,inhibition percentage,LIMK2,0.4 percentage
same,inhibition percentage,FLT3,−15.3 percentage
same,inhibition percentage,PDGFRA (PDGFR alpha),15.1 percentage
same,inhibition percentage,SRC,8.7 percentage
same,inhibition percentage,MAP2K2 (MEK2),13.3 percentage
same,inhibition percentage,CDK5/p25,1.0 percentage
same,inhibition percentage,CDC42 BPA (MRCKA),2.8 percentage
same,inhibition percentage,MYLK (MLCK),1.2 percentage
same,IC50,P12-Ichikawa cells,39.2 µM
same,total CDC42 levels,CDC42,no significant effect
same,CDC42 activation,CDC42; pull down,dose dependent reduction
same,cell apoptosis and cell death,SEM cell line,caused cells apoptosis and cell death
same,total Rac levels,Rac,no significant effect
same,Rac activation,Rac; pull down,dose dependent reduction
same,cell apoptosis and cell death,P12 cell line,caused cells apoptosis and cell death
